Assay [1] deals with T1, von Hippel-Lindau disease tumor suppressor/ALK tyrosine kinase receptor (Homo sapiens) (UniProt Q9UM73+P40337). Description: Protac activity at VHL/ALK in human NCI-H3122 cells assessed as increase in degradation of ALK at 500 nM by Western blot analysis relative to control. It is filed as cell-based.
In assay [2] the test system is SU-DHL-1. Description: Cytotoxicity against human SUDHL1 cells assessed as cell growth at 12 nM incubated for 2.5 days by CCk8 assay relative to control. It is filed as functional. Conditions: SU-DHL-1, 60 h.
The test system of assay [3] is SU-DHL-1. Description: Cytotoxicity against human SUDHL1 cells assessed as cell growth at 40 nM incubated for 2.5 days by CCk8 assay relative to control. It is filed as functional. Conditions: SU-DHL-1, 60 h.
The target of assay [4] is T1, von Hippel-Lindau disease tumor suppressor/ALK tyrosine kinase receptor (Homo sapiens). Description: Protac activity at VHL/ALK in human SUDHL1 cells assessed as increase in degradation of ALK at 30 nM by Western blot analysis relative to control. It is filed as cell-based. (In general: A western blot detects proteins with antibodies after separation by electrophoresis.)

For assay [5], the system named is SU-DHL-1. Description: Cytotoxicity against human SUDHL1 cells assessed as cell growth at 100 nM incubated for 2.5 days by CCk8 assay relative to control. It is filed as functional. Conditions: SU-DHL-1, 60 h.

T1 sequence (P40337 whole entry partner): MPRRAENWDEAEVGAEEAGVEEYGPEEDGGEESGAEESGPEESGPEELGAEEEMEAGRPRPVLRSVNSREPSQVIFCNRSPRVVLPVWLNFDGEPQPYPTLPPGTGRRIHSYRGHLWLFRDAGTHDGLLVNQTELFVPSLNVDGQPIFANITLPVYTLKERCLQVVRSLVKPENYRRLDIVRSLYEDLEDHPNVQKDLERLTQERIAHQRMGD
T1 sequence (Q9UM73 19-1620 limits assumed): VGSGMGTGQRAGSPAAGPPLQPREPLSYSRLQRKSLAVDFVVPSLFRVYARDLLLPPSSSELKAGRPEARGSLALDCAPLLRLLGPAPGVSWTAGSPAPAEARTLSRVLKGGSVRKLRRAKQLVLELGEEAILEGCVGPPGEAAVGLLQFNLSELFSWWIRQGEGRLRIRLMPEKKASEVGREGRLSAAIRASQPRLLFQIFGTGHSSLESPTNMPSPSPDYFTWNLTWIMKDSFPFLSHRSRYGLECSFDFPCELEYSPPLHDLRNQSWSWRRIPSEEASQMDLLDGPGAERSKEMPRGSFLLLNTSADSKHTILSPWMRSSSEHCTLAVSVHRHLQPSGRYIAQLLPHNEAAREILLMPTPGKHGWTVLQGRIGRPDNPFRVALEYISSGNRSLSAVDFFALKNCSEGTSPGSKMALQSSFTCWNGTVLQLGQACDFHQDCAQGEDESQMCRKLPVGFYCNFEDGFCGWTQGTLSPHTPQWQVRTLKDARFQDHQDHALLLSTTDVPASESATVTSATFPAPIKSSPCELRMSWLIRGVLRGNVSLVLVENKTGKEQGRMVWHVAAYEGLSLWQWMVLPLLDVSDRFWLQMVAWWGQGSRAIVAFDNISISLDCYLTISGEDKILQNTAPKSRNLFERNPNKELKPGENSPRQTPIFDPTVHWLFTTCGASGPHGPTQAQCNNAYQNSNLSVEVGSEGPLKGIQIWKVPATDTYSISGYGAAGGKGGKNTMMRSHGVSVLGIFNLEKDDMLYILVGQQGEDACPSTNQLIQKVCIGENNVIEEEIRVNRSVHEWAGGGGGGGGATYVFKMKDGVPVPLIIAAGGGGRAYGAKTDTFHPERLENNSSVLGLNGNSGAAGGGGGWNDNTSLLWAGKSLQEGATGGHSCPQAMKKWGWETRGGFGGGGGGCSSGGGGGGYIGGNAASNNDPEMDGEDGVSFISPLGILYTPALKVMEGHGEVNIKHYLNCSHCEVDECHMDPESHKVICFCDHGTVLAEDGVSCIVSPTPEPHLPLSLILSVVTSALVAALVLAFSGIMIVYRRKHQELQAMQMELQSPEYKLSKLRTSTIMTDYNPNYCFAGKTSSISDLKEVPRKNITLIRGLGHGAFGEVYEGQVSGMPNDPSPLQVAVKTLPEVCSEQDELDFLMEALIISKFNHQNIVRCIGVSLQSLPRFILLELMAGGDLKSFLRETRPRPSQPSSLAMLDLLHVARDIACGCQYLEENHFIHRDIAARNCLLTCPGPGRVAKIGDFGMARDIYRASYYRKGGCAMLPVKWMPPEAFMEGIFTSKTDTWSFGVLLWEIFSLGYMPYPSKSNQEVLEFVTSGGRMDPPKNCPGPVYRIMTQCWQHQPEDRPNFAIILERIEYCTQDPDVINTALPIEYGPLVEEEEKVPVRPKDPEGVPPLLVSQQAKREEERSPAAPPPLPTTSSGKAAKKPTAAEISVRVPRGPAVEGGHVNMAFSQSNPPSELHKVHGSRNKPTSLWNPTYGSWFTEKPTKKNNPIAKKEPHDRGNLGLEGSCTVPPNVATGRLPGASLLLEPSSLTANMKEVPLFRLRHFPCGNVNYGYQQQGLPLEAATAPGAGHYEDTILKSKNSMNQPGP

On to `Cc1cc(Nc2ncc(Cl)c(Nc3ccccc3S(=O)(=O)C(C)C)n2)c(OC(C)C)cc1C1CCN(C(=O)COCCOCC(=O)N[C@H](C(=O)N2C[C@H](O)C[C@H]2C(=O)N[C@@H](C)c2ccc(-c3scnc3C)cc2)C(C)(C)C)CC1`, for which the Activity in assay [1] was over 80%.

`Cc1cc(Nc2ncc(Cl)c(Nc3ccccc3S(=O)(=O)C(C)C)n2)c(OC(C)C)cc1C1CCN(CC(=O)NCCNc2cccc3c2C(=O)N(C2CCC(=O)NC2=O)C3=O)CC1` (centres undefined): the growth, % of control at 0.012 µM in assay [2] is 80.6%. In assay [3], the growth, % of control at 0.04 µM came to 30.5%. In addition, the Activity in assay [4] is over 80%. In addition, the growth, % of control at 0.1 µM in assay [5] turned out to be 2.1%.

As to `Cc1cc(Nc2ncc(Cl)c(Nc3ccccc3S(=O)(=O)C(C)C)n2)c(OC(C)C)cc1C1CCN(C(=O)CCCC(=O)N[C@H](C(=O)N2C[C@H](O)C[C@H]2C(=O)N[C@@H](C)c2ccc(-c3scnc3C)cc2)C(C)(C)C)CC1`, the Activity in assay [1] was over 80%.

In the case of `Cc1cc(Nc2ncc(Cl)c(Nc3ccccc3S(=O)(=O)C(C)C)n2)c(OC(C)C)cc1C1CCN(CC(=O)NCCOCCOCCOCCOCCOCCNc2cccc3c2C(=O)N(C2CCC(=O)NC2=O)C3=O)CC1` (centres undefined), in assay [2], the growth, % of control at 0.012 µM stood at 94.5%. Further, the growth, % of control at 0.04 µM in assay [3] came to 47.5%. Also, in assay [4], the Activity is over 80%. Also, the growth, % of control at 0.1 µM in assay [5] came to 3.9%.

For `Cc1cc(Nc2ncc(Cl)c(Nc3ccccc3S(=O)(=O)C(C)C)n2)c(OC(C)C)cc1C1CCN(CC(=O)NCCOCCOCCOCCOCCNc2cccc3c2C(=O)N(C2CCC(=O)NC2=O)C3=O)CC1` (centres undefined), the growth, % of control at 0.012 µM in assay [2] stood at 97.7%. Moreover, in assay [3], the growth, % of control at 0.04 µM stood at 67%. The Activity in assay [4] was over 80%. Moreover, the growth, % of control at 0.1 µM in assay [5] was found to be 3.5%.

The values are drawn from ChEMBL document CHEMBL4359880, “PROTACs and Targeted Protein Degradation for Treating ALK-Mediated Cancers” (2019).
